Literature values, collected in publication PMC11748363, “Antimicrobial and Antiproliferative Properties of 2‐Phenyl‐N‐(Pyridin‐2‐yl)acetamides” (Chemical Biology & Drug Design, 2025).
≈ marks a conversion by molar mass, not a printed value.

System: Mycobacterium tuberculosis H37Ra
Parameters: method as in Nawrot et al. 2021
Conditions: previously published N‐pyridinyl benzamides; ref Nawrot et al. 2021; cited from earlier work

| Structure (SMILES) | MIC Mtb H37Ra (μg/mL), previously published compounds [µg/mL] |
| --- | --- |
| O=C(Nc1ccc(Cl)cn1)c1ccccc1Cl [C00003 R1=5-Cl,R2=2-Cl] | > 500 |
| COc1ccccc1C(=O)Nc1ccc(Cl)cn1 [C00003 R1=5-Cl,R2=2-OMe] | 31.25 (≈ 119 µM) |
| O=C(Nc1ccc(Cl)cn1)c1cccc(C(F)(F)F)c1 [C00003 R1=5-Cl,R2=3-CF3] | 7.81 (≈ 26 µM) |
| O=C(Nc1ccc(Cl)cn1)c1cccc(Cl)c1 [C00003 R1=5-Cl,R2=3-Cl] | 31.25 (≈ 117 µM) |
| COc1cccc(C(=O)Nc2ccc(Cl)cn2)c1 [C00003 R1=5-Cl,R2=3-OMe] | 62.5 (≈ 238 µM) |
| O=C(Nc1ccc(Cl)cn1)c1ccc(Cl)cc1 [C00003 R1=5-Cl,R2=4-Cl] | > 500 |
| COc1ccc(C(=O)Nc2ccc(Cl)cn2)cc1 [C00003 R1=5-Cl,R2=4-OMe] | 62.5 (≈ 238 µM) |
| O=C(Nc1ccc(Cl)cn1)c1ccccc1 [C00003 R1=5-Cl,R2=H] | > 500 |
| O=C(Nc1cccc(Cl)n1)c1ccccc1Cl [C00003 R1=6-Cl,R2=2-Cl] | 62.5 (≈ 234 µM) |
| COc1ccccc1C(=O)Nc1cccc(Cl)n1 [C00003 R1=6-Cl,R2=2-OMe] | > 500 |
| O=C(Nc1cccc(Cl)n1)c1cccc(C(F)(F)F)c1 [C00003 R1=6-Cl,R2=3-CF3] | 7.81 (≈ 26 µM) |
| O=C(Nc1cccc(Cl)n1)c1cccc(Cl)c1 [C00003 R1=6-Cl,R2=3-Cl] | 15.625 (≈ 58.5 µM) |
| COc1cccc(C(=O)Nc2cccc(Cl)n2)c1 [C00003 R1=6-Cl,R2=3-OMe] | 31.25 (≈ 119 µM) |
